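Each compound was tested at five concentrations against cells in 96-well plates for 48 hours. At the TGI there is no net growth.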
How the values were obtained:
Experiment in all cases: NCI-60 cell line screen, 48 h
786-0 renal = tested on: 786-0 renal
A498 renal = tested on: A498 renal
A549 NSCLC = tested on: A549 NSCLC
ACHN renal = tested on: ACHN renal
CAKI-1 renal = tested on: CAKI-1 renal
CCRF-CEM leukemia = tested on: CCRF-CEM leukemia
COLO 205 colon = tested on: COLO 205 colon
DU-145 prostate = tested on: DU-145 prostate
EKVX NSCLC = tested on: EKVX NSCLC
HCC-2998 colon = tested on: HCC-2998 colon
HCT-116 colon = tested on: HCT-116 colon
HCT-15 colon = tested on: HCT-15 colon
HL-60(TB) leukemia = tested on: HL-60(TB) leukemia
HOP-62 NSCLC = tested on: HOP-62 NSCLC
HOP-92 NSCLC = tested on: HOP-92 NSCLC
HS 578T breast = tested on: HS 578T breast
HT29 colon = tested on: HT29 colon
IGROV1 ovarian = tested on: IGROV1 ovarian
K-562 leukemia = tested on: K-562 leukemia
KM12 colon = tested on: KM12 colon
LOX IMVI melanoma = tested on: LOX IMVI melanoma
M14 melanoma = tested on: M14 melanoma
MALME-3M melanoma = tested on: MALME-3M melanoma
MCF7 breast = tested on: MCF7 breast
MDA-MB-231 breast = tested on: MDA-MB-231 breast
MDA-MB-435 = tested on: MDA-MB-435
MDA-N = tested on: MDA-N
MOLT-4 leukemia = tested on: MOLT-4 leukemia
NCI-H226 lung = tested on: NCI-H226 lung
NCI-H23 lung = tested on: NCI-H23 lung
NCI-H460 lung = tested on: NCI-H460 lung
NCI-H522 lung = tested on: NCI-H522 lung
NCI/ADR-RES ovarian = tested on: NCI/ADR-RES ovarian
OVCAR-3 ovarian = tested on: OVCAR-3 ovarian
OVCAR-4 ovarian = tested on: OVCAR-4 ovarian
OVCAR-5 ovarian = tested on: OVCAR-5 ovarian
OVCAR-8 ovarian = tested on: OVCAR-8 ovarian
PC-3 prostate = tested on: PC-3 prostate
RPMI-8226 leukemia = tested on: RPMI-8226 leukemia
RXF 393 renal = tested on: RXF 393 renal
SF-268 CNS = tested on: SF-268 CNS
SF-295 CNS = tested on: SF-295 CNS
SF-539 CNS = tested on: SF-539 CNS
SK-MEL-2 melanoma = tested on: SK-MEL-2 melanoma
SK-MEL-28 melanoma = tested on: SK-MEL-28 melanoma
SK-MEL-5 melanoma = tested on: SK-MEL-5 melanoma
SK-OV-3 ovarian = tested on: SK-OV-3 ovarian
SN12C renal = tested on: SN12C renal
SNB-19 CNS = tested on: SNB-19 CNS
SNB-75 CNS = tested on: SNB-75 CNS
SR leukemia = tested on: SR leukemia
SW-620 colon = tested on: SW-620 colon
T-47D breast = tested on: T-47D breast
TK-10 renal = tested on: TK-10 renal
U251 CNS = tested on: U251 CNS
UACC-257 melanoma = tested on: UACC-257 melanoma
UO-31 renal = tested on: UO-31 renal
BT-549 breast = tested on: BT-549 breast
UACC-62 melanoma = tested on: UACC-62 melanoma

## COC(=O)[C@H](Cc1ccccc1)NP(=O)(O)OCC1OC(n2cc(C)c(=O)[nH]c2=O)CC1N=[N+]=[N-] (stereo not given in full)
786-0 renal
  TGI: > 100 µM
A498 renal
  TGI: > 100 µM
A549 NSCLC
  TGI: > 100 µM
ACHN renal
  TGI: > 100 µM
CAKI-1 renal
  TGI: > 100 µM
CCRF-CEM leukemia
  TGI: > 100 µM
COLO 205 colon
  TGI: > 100 µM
DU-145 prostate
  TGI: > 100 µM
EKVX NSCLC
  TGI: > 100 µM
HCC-2998 colon
  TGI: > 100 µM
HCT-116 colon
  TGI: > 100 µM
HCT-15 colon
  TGI: > 100 µM
HL-60(TB) leukemia
  TGI: > 100 µM
HOP-62 NSCLC
  TGI: > 100 µM
HOP-92 NSCLC
  TGI: > 100 µM
HS 578T breast
  TGI: > 100 µM
HT29 colon
  TGI: > 100 µM
IGROV1 ovarian
  TGI: > 100 µM
K-562 leukemia
  TGI: > 100 µM
KM12 colon
  TGI: > 100 µM
LOX IMVI melanoma
  TGI: > 100 µM
M14 melanoma
  TGI: > 100 µM
MALME-3M melanoma
  TGI: > 100 µM
MCF7 breast
  TGI: > 100 µM
MDA-MB-231 breast
  TGI: > 100 µM
MDA-MB-435
  TGI: > 100 µM
MDA-N
  TGI: > 100 µM
MOLT-4 leukemia
  TGI: > 100 µM
NCI-H226 lung
  TGI: > 100 µM
NCI-H23 lung
  TGI: > 100 µM
NCI-H460 lung
  TGI: > 100 µM
NCI-H522 lung
  TGI: > 100 µM
NCI/ADR-RES ovarian
  TGI: > 100 µM
OVCAR-3 ovarian
  TGI: > 100 µM
OVCAR-4 ovarian
  TGI: > 100 µM
OVCAR-5 ovarian
  TGI: > 100 µM
OVCAR-8 ovarian
  TGI: > 100 µM
PC-3 prostate
  TGI: > 100 µM
RPMI-8226 leukemia
  TGI: > 100 µM
RXF 393 renal
  TGI: > 100 µM
SF-268 CNS
  TGI: > 100 µM
SF-295 CNS
  TGI: > 100 µM
SF-539 CNS
  TGI: > 100 µM
SK-MEL-2 melanoma
  TGI: > 100 µM
SK-MEL-28 melanoma
  TGI: > 100 µM
SK-MEL-5 melanoma
  TGI: > 100 µM
SK-OV-3 ovarian
  TGI: > 100 µM
SN12C renal
  TGI: > 100 µM
SNB-19 CNS
  TGI: > 100 µM
SNB-75 CNS
  TGI: > 100 µM
SR leukemia
  TGI: > 100 µM
SW-620 colon
  TGI: > 100 µM
T-47D breast
  TGI: > 100 µM
TK-10 renal
  TGI: > 100 µM
U251 CNS
  TGI: > 100 µM
UACC-257 melanoma
  TGI: > 100 µM
UO-31 renal
  TGI: > 100 µM

## O=C(/C=C\Nc1ccccc1O)C(Cl)(Cl)Cl
786-0 renal
  TGI: 64.7 µM
A498 renal
  TGI: > 100 µM
A549 NSCLC
  TGI: > 100 µM
ACHN renal
  TGI: > 100 µM
BT-549 breast
  TGI: > 100 µM
CAKI-1 renal
  TGI: > 100 µM
CCRF-CEM leukemia
  TGI: > 100 µM
COLO 205 colon
  TGI: > 100 µM
DU-145 prostate
  TGI: > 100 µM
EKVX NSCLC
  TGI: > 100 µM
HCC-2998 colon
  TGI: 52.6 µM
HCT-116 colon
  TGI: > 100 µM
HCT-15 colon
  TGI: > 100 µM
HL-60(TB) leukemia
  TGI: > 100 µM
HOP-62 NSCLC
  TGI: 52.7 µM
HOP-92 NSCLC
  TGI: > 100 µM
HS 578T breast
  TGI: > 100 µM
HT29 colon
  TGI: > 100 µM
IGROV1 ovarian
  TGI: > 100 µM
K-562 leukemia
  TGI: > 100 µM
KM12 colon
  TGI: > 100 µM
LOX IMVI melanoma
  TGI: > 100 µM
M14 melanoma
  TGI: > 100 µM
MALME-3M melanoma
  TGI: > 100 µM
MCF7 breast
  TGI: 64.5 µM
MDA-MB-231 breast
  TGI: > 100 µM
MDA-MB-435
  TGI: 43.8 µM
MDA-N
  TGI: 59.2 µM
MOLT-4 leukemia
  TGI: > 100 µM
NCI-H226 lung
  TGI: > 100 µM
NCI-H23 lung
  TGI: > 100 µM
NCI-H460 lung
  TGI: > 100 µM
NCI-H522 lung
  TGI: 65 µM
NCI/ADR-RES ovarian
  TGI: > 100 µM
OVCAR-3 ovarian
  TGI: 43.1 µM
OVCAR-4 ovarian
  TGI: > 100 µM
OVCAR-5 ovarian
  TGI: > 100 µM
OVCAR-8 ovarian
  TGI: > 100 µM
PC-3 prostate
  TGI: > 100 µM
RPMI-8226 leukemia
  TGI: > 100 µM
RXF 393 renal
  TGI: > 100 µM
SF-268 CNS
  TGI: > 100 µM
SF-295 CNS
  TGI: 35.2 µM
SF-539 CNS
  TGI: > 100 µM
SK-MEL-2 melanoma
  TGI: > 100 µM
SK-MEL-28 melanoma
  TGI: > 100 µM
SK-MEL-5 melanoma
  TGI: > 100 µM
SK-OV-3 ovarian
  TGI: > 100 µM
SN12C renal
  TGI: > 100 µM
SNB-19 CNS
  TGI: > 100 µM
SNB-75 CNS
  TGI: > 100 µM
SW-620 colon
  TGI: > 100 µM
T-47D breast
  TGI: 96.4 µM
TK-10 renal
  TGI: > 100 µM
U251 CNS
  TGI: 81.8 µM
UACC-257 melanoma
  TGI: > 100 µM
UACC-62 melanoma
  TGI: > 100 µM
UO-31 renal
  TGI: 76.5 µM
